We go through 72 molecules from PubChem BioAssay AID179 (DTP/NCI, 2004).

As a reminder, the EC50 is the concentration needed to bring the measured effect to its halfway point. A word on the IC50: it is the point on the concentration scale where inhibition reaches its midpoint. Low readings indicate greater potency in that assay, high ones weaker potency in that assay.

Molecules are shown by their SMILES. Activity calls are given as the source filed them.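 The calls were made as follows: active = compounds giving half or more protection of infected cells from virus-caused growth loss, again on retest; inactive = the rest.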 Where a SMILES comes first, the peptide text is derived from it. The star is where a group is joined. ONb = O=[N+]([O-])c1ccc(CO*)cc1; Cbz = O=C(OCc1ccccc1)* Some results are limits rather than exact numbers.

The assay relates to CEM cells HIV-1 protection, formazan growth assay. In words: NCI AIDS Antiviral Assay. The conditions noted are these: for IC50: measured here: growth of uninfected CEM cells. In a few lines: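 Human CEM cells, uninfected and HIV-1-infected, exposed to five drug concentrations; growth measured by soluble formazan assay and scored as percent protection from infection, with protecting compounds retested.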

As to `COc1ccc(/C=C2\Cc3ccccc3C2=O)cc1`, the EC50 was above 20 µM and the IC50 was above 20 µM.
With `Nc1nc(SCc2ccccc2)c2ncn(CCO)c2n1`, the EC50 was above 200 µM and the IC50 turned out to be 191 µM.
The corresponding values for `O=C1CC2C(=O)NC(=O)C2C(=O)N1` (centres undefined) are above 1380 µM and above 1380 µM.
The corresponding values for `CCOC(=O)CCC1(C)OC[C@H]2OC(n3cc(C)c(=O)[nH]c3=O)C[C@H]2N1O` (some centres undefined) are above 200 µM and above 200 µM.
Regarding `O=C(CCN1CCOCC1)c1ccc(Oc2ccc(F)cc2)cc1`, the result was inactive.
Consider `CNC(=O)CNC(=O)c1ccccc1SC(=O)CCCC[n+]1ccccc1`, for which the EC50 was 1.95 µM and the IC50 is 22.9 µM.
The corresponding values for `COC(=N)CCCl` are above 200 µM and above 200 µM.
Taken in the same sequence, the figures for `COc1ccc(-c2nc(N)c(C#N)c3c2CCSc2ccc(C)cc2-3)cc1OC` were above 200 µM and 11.7 µM.
Consider `Cc1ccc(Nc2nnc(CSc3ccc(Cl)cc3)s2)c(S(=O)(=O)O)c1`, for which the EC50 was above 200 µM and the IC50 came to 148 µM.
The corresponding values for `Cn1c(COC(=O)NC2CCCCC2)c(COC(=O)NC2CCCCC2)c2ccc3cc(Cl)c(Cl)cc3c21` are above 174 µM and 6.46 µM.
Taken in the same sequence, the figures for `N#CCc1ccccc1C(=O)O` were above 1550 µM and 891 µM.
With `Cc1cnc(C)c(-c2cc3ccccc3[nH]2)n1`, the EC50 is above 32.4 µM and the IC50 was above 32.4 µM.
On to `CN(CCO)c1nc2c(c(=O)[nH]1)CNCC2`, for which the EC50 was above 288 µM and the IC50 was above 288 µM.
Take `Cc1cn([C@@H]2O[C@H](CO[Si](C)(C)C(C)(C)C)[C@]3(O[C@H]3C(=O)NO)[C@H]2O[Si](C)(C)C(C)(C)C)c(=O)[nH]c1=O`: the EC50 is above 200 µM and the IC50 was found to be 1.17 µM.
The corresponding values for `COCP1(=S)OC(C)CCN1C(C)C` (centres undefined) are above 200 µM and 112 µM.
For `Cc1nn(-c2ccccc2)c2nc3ccc(Cl)cc3c(-c3ccccc3)c12`, the EC50 was above 200 µM and the concentration for half-maximal inhibition (IC50) was above 200 µM.
`CCCCCOCCCCCCCC(=O)OCC1OC(n2cc(C)c(=O)[nH]c2=O)CC1N=[N+]=[N-]` (centres undefined): the outcome was active.
For `CCCCCCCCCCCOc1ccc(C(=O)C(=O)c2ccc(OCCCCCCCCCCC)c(OCCCCCCCCCCC)c2)cc1OCCCCCCCCCCC`, the EC50 is above 10.5 µM and the IC50 is above 10.5 µM.
For the molecule `CCCCNc1nc2ccccc2c2c1ncn2CC(C)C`, the EC50 is above 200 µM and the concentration for half-maximal inhibition (IC50) came out at 20 µM.
`NC(=O)N/N=C(/CC1C(=O)Oc2ccccc21)c1ccccc1O` (centres undefined): the EC50 is above 550 µM and the IC50 was 295 µM.
As to `CCOC(=O)NC(=O)c1cn(CCCCCCCCCCC(=O)NCCCN2CCN(CCCNC(=O)CCCCCCCCCCn3cc(C(=O)NC(=O)OCC)c(=O)[nH]c3=O)CC2)c(=O)[nH]c1=O`, the outcome was inactive.
As to `COc1ccc(NC(=O)/C(=C/c2ccc(N(CCC#N)CCC#N)cc2)NC(=O)c2cc([N+](=O)[O-])ccc2Cl)cc1`, the EC50 is above 23.4 µM and the IC50 is above 23.4 µM.
With `S=c1[nH]c2ccccc2s1.[Zn+2]`, the EC50 was above 26.3 µM and the IC50 was above 26.3 µM.
Take `O=C(CN1CCOCC1)CC(O)(C(F)(F)F)C(F)(F)F`: the EC50 was above 200 µM and the 50% inhibitory concentration (IC50) amounted to 95.5 µM.
Taken in the same sequence, the figures for `CCOC(=O)c1nc2cc(C(F)(F)F)ccc2nc1Oc1ccc(OC)cc1` were above 200 µM and 174 µM.
In the case of `COc1cc2c(=O)c3ccccc3oc2c(O)c1OC`, the EC50 is above 200 µM and the IC50 is above 200 µM.
`Nc1nc(Cl)cc(Nc2cc(Cl)cc(Cl)c2)n1`: the EC50 is above 200 µM and the half-maximal inhibitory concentration (IC50) came to 23.4 µM.
The corresponding values for `NC(Cc1ccc(S(=O)(=O)O)cc1)C(=O)NC(CCCCNC(=O)NCCCCC(NC(=O)C(N)Cc1ccc(S(=O)(=O)O)cc1)C(=O)NC(Cc1ccc(S(=O)(=O)O)cc1)C(=O)O)C(=O)NC(Cc1ccc(S(=O)(=O)O)cc1)C(=O)O` (centres undefined) are above 100 µM and above 100 µM.
As to `CCCCCCCCC#CCCCCCCC(F)C(=O)O` (centres undefined), the outcome was inactive.
In the case of `CCN(CC)CCC(=O)NC1c2ccccc2Oc2ccccc21`, the EC50 was above 398 µM and the IC50 was 219 µM.
`COC(=O)c1cn2ccc3ccccc3c2c1C(=O)OC`: the EC50 is above 200 µM and the IC50 was above 100 µM.
The corresponding values for `CN(CCO)c1cnn(CCO)c(=O)c1Cl` are above 200 µM and above 200 µM.
`O=C(/C=C/c1ccc(O)c(O)c1)OCCCc1ccccc1`: the EC50 is above 200 µM and the IC50 was 5.01 µM.
In the case of `CCN(CC)CCC(=O)c1ccc(Sc2ccc(F)cc2)cc1`, the result was inactive.
Take `COc1cc(OC)cc(Oc2nc3ccc(C(F)(F)F)cc3nc2-c2ccccc2)c1`: the EC50 was above 200 µM and the half-maximal inhibitory concentration (IC50) was above 200 µM.
In the case of `CC(C)=CCC[C@@H](C)C1=C(O)C(Nc2ccccc2Br)=C(C)C(=O)C1=O`, the EC50 was above 100 µM and the IC50 was 8.13 µM.
The corresponding values for `C=C(C)C1Cc2c(cc(OC)c3c(=O)c4ccccc4n(C)c23)O1` (centres undefined) are above 22.4 µM and above 22.4 µM.
Regarding `c1cc[c]([Sn]([S]c2cccc3cccnc23)([S]c2cccc3cccnc23)[c]2ccccc2)cc1`, the outcome was inactive.
With `CN1C(=O)C2(C#N)C(C)(C)C2(C#N)C1=O` (centres undefined), the EC50 was above 200 µM and the IC50 is above 200 µM.
`CCOc1ccc2nc(NC(=O)/C(CC(=O)CC(C3=C(O)c4ccccc4CC3=O)c3ccccc3)=N\O)sc2c1` (centres undefined): the EC50 was above 4.79 µM and the IC50 was above 4.79 µM.
Take `C1=CC(N(c2ccccc2)C2C=CCCC2)CCC1` (centres undefined): the result was inactive.
Consider `N#CC1(C#N)C(C#N)(C#N)C12CCCC2`, for which the EC50 is above 20 µM and the IC50 was determined as 10.5 µM.
The corresponding values for `CCOP(=O)(OCC)C1C(CO)OC(n2ccc(=O)[nH]c2=O)C1O` (centres undefined) are above 200 µM and 74.1 µM.
The corresponding values for `CCN1C(c2ccc(Cl)cc2)=NN2C(C)=CC(C)(C)N=C12` are above 85.1 µM and 60.3 µM.
The corresponding values for `C/C=C1\CN2CCc3c([nH]c4ccccc34)C2CC1C(=O)OC` (centres undefined) are above 219 µM and above 219 µM.
Take `COC1/C=C/OC2(C)Oc3c(C)c(O)c4c(O)c(cc(OCC(=O)N5CCCCCC5)c4c3C2=O)NC(=O)/C(C)=C\C=C\C(C)C(O)C(C)C(O)C(C)C(OC(C)=O)C1C` (centres undefined): the EC50 was above 200 µM and the IC50 is 39.8 µM.
The corresponding values for `Cc1c(Cl)ccc2c1NC(=O)C2(O)C1Cc2ccccc2C1=O` (centres undefined) are above 28.8 µM and 12.6 µM.
The corresponding values for `CN(C)c1ccc2nc(C(=O)O)c(=O)n(C)c2c1` are above 200 µM and above 200 µM.
Taken in the same sequence, the figures for `COc1ccc(C(c2ccc(OC)cc2)N2C(=O)CCC2C(=O)O)cc1` (centres undefined) were above 200 µM and above 200 µM.
`N#Cc1ccc(/C=N\N2C(=O)c3ccccc3C2=O)cc1`: the EC50 was above 26.3 µM and the IC50 is above 26.3 µM.
Consider `COc1cc(C)c2c(=O)c3ccccc3n(C)c2c1`, for which the EC50 is 2.82 µM and the IC50 was 30.2 µM.
Taken in the same sequence, the figures for `O=C(O)CCCCCSCCCCCCSCCCCCC(=O)O` were above 50.1 µM and above 50.1 µM.
As for `NS(=O)(=O)c1nnc(NC(=O)CCC(=O)O)s1`, the EC50 is above 200 µM and the IC50 was above 200 µM.
Turning to `CCOc1ccc2nc3nc(=O)[nH]c(C)c3c(NC(C)(CO)CO)c2c1`, the EC50 is above 200 µM and the IC50 is above 200 µM.
On to `N#Cc1c(-c2ccccc2)c(-c2ccccc2)cc2c(=O)c3ccc(Cl)cc3[nH]c12`, for which the EC50 was above 33.1 µM and the IC50 is above 33.1 µM.
With `CC#CC#C/C=C1\C=CC2(OC=CC2OC(C)=O)O1` (centres undefined), the outcome was inactive.
As for `CCCCCC/C=C\CCCCCCCCCC1=C(CN2CCN(C)CC2)C(=O)C=C(OC)C1=O`, the EC50 is above 200 µM and the IC50 was 1 µM.
The corresponding values for `O=C1OCCN1CCO` are above 200 µM and above 200 µM.
`NCC1OC(OC2C(CO)OC(OC3C(O)C(N)CC(N)C3OC3OC(CN)C(O)C(O)C3N)C2O)C(N)C(O)C1O` (centres undefined): the result was inactive.
For `O=C(O)c1cc2c(ncc3c(=O)n(-c4ccccc4)[nH]c32)s1`, the EC50 was above 115 µM and the IC50 was above 115 µM.
Turning to `NC(N)=NS(N)(=O)=O`, the EC50 is above 200 µM and the 50% inhibitory concentration (IC50) was above 200 µM.
Turning to `Cc1nc2ccc(C(F)(F)F)cc2nc1Nc1ccc(Cl)c(Cl)c1`, the EC50 was above 17.8 µM and the IC50 is 11.5 µM.
The corresponding values for `CCC(=O)ONC(=O)Cn1ccc([N+](=O)[O-])n1` are above 200 µM and 66.1 µM.
As to `O=C(Nn1c(-c2ccccc2)nc2ccccc2c1=O)c1ccc(O)cc1`, the EC50 was above 200 µM and the half-inhibitory concentration (IC50) was above 200 µM.
As for `CSc1ccc(/C=C2\C=Cc3ccccc32)cc1`, the EC50 is above 28.8 µM and the IC50 is above 28.8 µM.
On to `Cc1cc2cc3ccc(Cl)nn3c2nn1`, for which the EC50 was above 200 µM and the IC50 was above 200 µM.
In the case of `COCN1C(=O)C2CC(/C=C/C(N)=O)=CN2C(=O)c2ccccc21` (centres undefined), the result was inactive.
For `O=C1COc2ccc(F)cc2N1`, the EC50 was above 380 µM and the 50% inhibitory concentration (IC50) is above 380 µM.
For the molecule `N#Cc1nc(Nc2cccc3ccccc23)sc1N`, the EC50 was above 135 µM and the IC50 amounted to 60.3 µM.
Regarding `CCOC(=O)/C(C#N)=C/c1ccccc1F`, the EC50 was above 309 µM and the IC50 is above 309 µM.
Take `CC(C)CC(NC(=O)C(Cc1cnc[nH]1)NC(=O)C(Cc1ccccc1)NC(=O)C1CCCN1C(=O)OCc1ccccc1)C(=O)NC(CC(C)C)C(=O)NC(C(=O)NC(Cc1ccc(O)cc1)C(=O)NC(CO)C(=O)OCc1ccc([N+](=O)[O-])cc1)C(C)C` (centres undefined) (Cbz-PFHLLVYS-ONb; configuration not given here): the EC50 is above 11 µM and the IC50 was above 11 µM.
As for `COC(=O)C1=NOC2C(=O)N(c3ccccc3)C(=O)C12` (centres undefined), the EC50 is above 200 µM and the IC50 was above 200 µM.
